Laboratory results taken from patent US12391648B2, “Pyridyloxy thioester derivative and preparation method therefor, herbicidal composition, and application” (Qingdao Kingagroot Chemical Compound Co., Ltd., priority 2018, dated 2025).

Tests used:
Assay in all cases: Post-emergence test experiment (Table 3, 1000 g/ha)
Format in all cases: in vivo
Conditions in all cases: post-emergence spray, after 3 weeks, fresh weight inhibition
Setaria viridis = system: Setaria viridis
Summary of the method: (§1)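 Activity graded levels 0-5 by fresh-weight inhibition (level 5 above 85%, level 0 below 5%), assessed 3 weeks after treatment. Plants grown in greenhouse pots were sprayed post-emergence at 2-3 leaves using acetone/tween-80 solutions with methyl oleate synergist (1.5 L/ha).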

Galium spurium = system: Galium spurium
Summary of the method: as §1

Leptochloa chinensis = system: Leptochloa chinensis
Summary of the method: as §1

Abutilon theophrasti = system: Abutilon theophrasti
Summary of the method: as §1

Monochoria vaginalis = system: Monochoria vaginalis
Summary of the method: as §1

Digitaria sanguinalis = system: Digitaria sanguinalis
Summary of the method: as §1

SMILES	Activity level (growth inhibition rate) Setaria viridis (Setaria viridis)	Activity level (growth inhibition rate) Galium spurium (Galium spurium)	Activity level (growth inhibition rate) Leptochloa chinensis (Leptochloa chinensis)	Activity level (growth inhibition rate) Abutilon theophrasti (Abutilon theophrasti)	Activity level (growth inhibition rate) Monochoria Vaginalis (Monochoria vaginalis)	Activity level (growth inhibition rate) Digitaria sanguinalis (Digitaria sanguinalis)
CC(Oc1nc(F)c(Cl)c(N)c1Cl)C(=O)SCC(F)(F)C(F)(F)F (stereo not drawn) [Compound 80]	5 (Level 5: the growth inhibition rate is greater than 85%)	5 (Level 5: the growth inhibition rate is greater than 85%)	5 (Level 5: the growth inhibition rate is greater than 85%)	5 (Level 5: the growth inhibition rate is greater than 85%)	5 (Level 5: the growth inhibition rate is greater than 85%)	5 (Level 5: the growth inhibition rate is greater than 85%)
CSC(=O)C(C)Oc1nc(F)c(F)c(N)c1F (stereo not drawn) [Compound 1]	5 (Level 5: the growth inhibition rate is greater than 85%)	5 (Level 5: the growth inhibition rate is greater than 85%)	5 (Level 5: the growth inhibition rate is greater than 85%)	5 (Level 5: the growth inhibition rate is greater than 85%)	5 (Level 5: the growth inhibition rate is greater than 85%)	5 (Level 5: the growth inhibition rate is greater than 85%)
CC(C)CCCSC(=O)C(C)Oc1nc(F)c(Cl)c(N)c1Cl (stereo not drawn) [Compound 154]	5 (Level 5: the growth inhibition rate is greater than 85%)	5 (Level 5: the growth inhibition rate is greater than 85%)	5 (Level 5: the growth inhibition rate is greater than 85%)	5 (Level 5: the growth inhibition rate is greater than 85%)	5 (Level 5: the growth inhibition rate is greater than 85%)	5 (Level 5: the growth inhibition rate is greater than 85%)
CC(Oc1nc(F)c(Cl)c(N)c1Cl)C(=O)SC/C=C/Cl (stereo not drawn) [Compound 91]	5 (Level 5: the growth inhibition rate is greater than 85%)	5 (Level 5: the growth inhibition rate is greater than 85%)	5 (Level 5: the growth inhibition rate is greater than 85%)	5 (Level 5: the growth inhibition rate is greater than 85%)	5 (Level 5: the growth inhibition rate is greater than 85%)	5 (Level 5: the growth inhibition rate is greater than 85%)
COC(=O)CSC(=O)C(C)Oc1nc(F)c(Cl)c(N)c1Cl (stereo not drawn) [Compound 93]	5 (Level 5: the growth inhibition rate is greater than 85%)	5 (Level 5: the growth inhibition rate is greater than 85%)	5 (Level 5: the growth inhibition rate is greater than 85%)	5 (Level 5: the growth inhibition rate is greater than 85%)	5 (Level 5: the growth inhibition rate is greater than 85%)	5 (Level 5: the growth inhibition rate is greater than 85%)
CC(Oc1nc(F)c(Cl)c(N)c1Cl)C(=O)Sc1cccnc1 (stereo not drawn) [Compound 115]	5 (Level 5: the growth inhibition rate is greater than 85%)	5 (Level 5: the growth inhibition rate is greater than 85%)	5 (Level 5: the growth inhibition rate is greater than 85%)	5 (Level 5: the growth inhibition rate is greater than 85%)	5 (Level 5: the growth inhibition rate is greater than 85%)	5 (Level 5: the growth inhibition rate is greater than 85%)
CCNc1c(Cl)c(F)nc(OC(C)C(=O)SC)c1Cl (stereo not drawn) [Compound 128]	5 (Level 5: the growth inhibition rate is greater than 85%)	5 (Level 5: the growth inhibition rate is greater than 85%)	5 (Level 5: the growth inhibition rate is greater than 85%)	5 (Level 5: the growth inhibition rate is greater than 85%)	5 (Level 5: the growth inhibition rate is greater than 85%)	5 (Level 5: the growth inhibition rate is greater than 85%)
CSC(=O)C(C)Oc1nc(F)c(Cl)c(NC(C)=O)c1Cl (stereo not drawn) [Compound 129]	5 (Level 5: the growth inhibition rate is greater than 85%)	5 (Level 5: the growth inhibition rate is greater than 85%)	5 (Level 5: the growth inhibition rate is greater than 85%)	5 (Level 5: the growth inhibition rate is greater than 85%)	5 (Level 5: the growth inhibition rate is greater than 85%)	5 (Level 5: the growth inhibition rate is greater than 85%)
CSC(=O)C(C)Oc1nc(C(F)(F)F)c(F)c(N)c1C(C)C (stereo not drawn) [Compound 11]	5 (Level 5: the growth inhibition rate is greater than 85%)	5 (Level 5: the growth inhibition rate is greater than 85%)	5 (Level 5: the growth inhibition rate is greater than 85%)	5 (Level 5: the growth inhibition rate is greater than 85%)	5 (Level 5: the growth inhibition rate is greater than 85%)	5 (Level 5: the growth inhibition rate is greater than 85%)
CCCC(C)SC(=O)C(C)Oc1nc(F)c(Cl)c(N)c1Cl (stereo not drawn) [Compound 144]	5 (Level 5: the growth inhibition rate is greater than 85%)	5 (Level 5: the growth inhibition rate is greater than 85%)	5 (Level 5: the growth inhibition rate is greater than 85%)	5 (Level 5: the growth inhibition rate is greater than 85%)	5 (Level 5: the growth inhibition rate is greater than 85%)	5 (Level 5: the growth inhibition rate is greater than 85%)
CC(Oc1nc(F)c(Cl)c(N)c1Cl)C(=O)SC1CC1 (stereo not drawn) [Compound 81]	5 (Level 5: the growth inhibition rate is greater than 85%)	5 (Level 5: the growth inhibition rate is greater than 85%)	5 (Level 5: the growth inhibition rate is greater than 85%)	5 (Level 5: the growth inhibition rate is greater than 85%)	5 (Level 5: the growth inhibition rate is greater than 85%)	5 (Level 5: the growth inhibition rate is greater than 85%)
CCCSC(=O)C(C)Oc1nc(F)c(Cl)c(N)c1Cl (stereo not drawn) [Compound 67]	5 (Level 5: the growth inhibition rate is greater than 85%)	5 (Level 5: the growth inhibition rate is greater than 85%)	5 (Level 5: the growth inhibition rate is greater than 85%)	5 (Level 5: the growth inhibition rate is greater than 85%)	5 (Level 5: the growth inhibition rate is greater than 85%)	5 (Level 5: the growth inhibition rate is greater than 85%)
CC(Oc1nc(F)c(Cl)c(N)c1Cl)C(=O)SC(N)=O (stereo not drawn) [Compound 100]	5 (Level 5: the growth inhibition rate is greater than 85%)	5 (Level 5: the growth inhibition rate is greater than 85%)	5 (Level 5: the growth inhibition rate is greater than 85%)	5 (Level 5: the growth inhibition rate is greater than 85%)	5 (Level 5: the growth inhibition rate is greater than 85%)	5 (Level 5: the growth inhibition rate is greater than 85%)
CCc1c(OC(C)C(=O)SC)nc(C(F)(F)F)c(CC)c1N (stereo not drawn) [Compound 8]	5 (Level 5: the growth inhibition rate is greater than 85%)	5 (Level 5: the growth inhibition rate is greater than 85%)	5 (Level 5: the growth inhibition rate is greater than 85%)	5 (Level 5: the growth inhibition rate is greater than 85%)	5 (Level 5: the growth inhibition rate is greater than 85%)	5 (Level 5: the growth inhibition rate is greater than 85%)
